Experimental data as given in paper PMC2365028, “Transepithelial Transport and Metabolism of Boronated Dipeptides Across Caco-2 and HCT-8 Cell Monolayers” (Metal-Based Drugs, 1996).
“And” between values parts separate entries of the source, which are not always exact repeats. Equal entries are not always repeated. Where a SMILES comes first, the peptide text is derived from it.

What was measured:
[1] = tested on: various murine and human tissue cultured cancer cells; settings: cited from earlier work
Caco-2 cell monolayers [2] = experiment: Apical-to-basal transport and metabolism across Caco-2 cell monolayers (Transwell); settings: for % Mass Balance / % Mass Transported / % Mass in Apical Side / Pseudo first-order rate constant k + SD / Apparent permeability coefficient Pe + SD / % Ester in the basal compartment / % FA (corresponding free acid) in the basal compartment: 4 h; for % Ester in the basal compartment / % FA (corresponding free acid) in the basal compartment: Table 9, side-by-side experiment; for recovery after quantitating the free acids at the conclusion of transport experiments: ester plus free acid
Description: (§1) TRANSEPITHELIAL TRANSPORT AND METABOLISM OF BORONATED DIPEPTIDES ACROSS CACO-2 AND HCT-8 CELL MONOLAYERS Amy L. Elkins,John G. Eley,3, Merrill C. […] This study examined the effect of boronation on the transepithelial transport and metabolism of three glycine-phenylalanine dipeptides in Caco-2 and HCT-8 cell monolayers. […] Oral delivery of proteins and peptides as therapeutic agents is problematic due to their low bioavailability. This is mainly due to both their poor permeability across cellular barriers and to enzymatic degradation that occurs in the gut lumen, brush border, and enterocyte cytoplasm (2). […] Such as a substitution may also have the potential to alter the in vivo bioavailability of dipeptides. […] This study was undertaken to determine the effect of boronation on the transepithelial transport and metabolism of three glycine-phenylalanine dipeptides. […] Caco-2 cells are human colon adenocarcinoma cells first isolated from a primary colonic tumor (4). The cell line undergoes spontaneous enterortic differentiation in culture after reaching cotfflucnce, and morphologically resembles small intestinal epitheliun after three xveeks in culture (5). These morphological characteristics include the development of a brush border region expressing microvilli, occluding junctions, dome formations, and the formation of tight junctions leading to cell polarity. […] The cell line expresses a dipeptide carrier transport system in both the apical and basal membranes (9-10). […] HCT-8 cells are human adenocarcinoma cells from the ileocecal region; as such, these cells may give a truer reflection of gut absorption compared to Caco-2 cells which are derived from the colonic region. The cells produce a polarized differentiated monolayer consisting of enterocyte-like columnar cells that are interconnected by mature tightjunctions and desmosomes and exposed microvilla (11). The structural and functional integrity of the tight junctions of cells grown on polyester filter cups (Falcon, BD) and membrane filter inserts (Transwell(R), Costar) have been confirmed by transmission electron microscopy, transepithelial electrical resistance measurements, and transport of impermeant markers such as mannitol and polyethylene glycol (11, 12). […] Compound//was donated by Boron Biologicals, Inc., Raleigh, NC. Compound 111 was synthesized as follows: L-phenylalanine methyl ester hydrochloride (2.09 g, 9.7 mmol) and dimethylglycine (1 g, 9.7 retool) xvere suspended in 30 ml dry tetrahydrofuran with 10 mmol of triethylamine, dicyclohexyl-carbodiinfide and hydrox3'benzotriazole. The reaction was stirred at room temperature for 48 hours under nitrogen and the solvent was removed under reduced pressure. The product was purified on silica gel, two void volumes of hexane, two void volumes hexane/ethanol (8'1), and then hexane/ethanol (5:1). […] For the transport studies, cells were diluted with growth medium to give a total of […] cells/cm in 1.5 mls. The 1.5 ntis was placed in the apical compartment of a Transwcll(R) (Costar). The Transxvell(R) system is a 6-well plate with each well having an apical compartment capacity of 1.5 ntis, a basal compartment capacity of 2.5 ntis, and a 4.71 cm polycarbonate microporous (0.45 gin) membrane separating the two compartments. Cell monolayers in the Transwell(R) were allowed to grow for 21 days while the medium was replaced every 3 days. The cells were grown in Dulbecco's Modified Eagle Medium (D-MEM) containing L-glutamine and sodium pyruvate at 37C under 5% CO-. and saturated humidity. Additives to the medium included 10% heat- inactivated fetal bovine serum, 10 mM nonessential amino acids, 100 units of penicillin and 100 mg of streptomycin per ml of medium. 278 A.L. Elkins, J.G. Eley, M.C.

Caco-2 cell monolayers [3] = experiment: Basal-to-apical transport across Caco-2 cell monolayers; settings: basal-to-apical
Description: (§2) TRANSEPITHELIAL TRANSPORT AND METABOLISM OF BORONATED DIPEPTIDES ACROSS CACO-2 AND HCT-8 CELL MONOLAYERS Amy L. Elkins,John G. Eley,3, Merrill C. […] This study examined the effect of boronation on the transepithelial transport and metabolism of three glycine-phenylalanine dipeptides in Caco-2 and HCT-8 cell monolayers. […] Oral delivery of proteins and peptides as therapeutic agents is problematic due to their low bioavailability. This is mainly due to both their poor permeability across cellular barriers and to enzymatic degradation that occurs in the gut lumen, brush border, and enterocyte cytoplasm (2). […] Such as a substitution may also have the potential to alter the in vivo bioavailability of dipeptides. […] This study was undertaken to determine the effect of boronation on the transepithelial transport and metabolism of three glycine-phenylalanine dipeptides. […] Caco-2 cells are human colon adenocarcinoma cells first isolated from a primary colonic tumor (4). The cell line undergoes spontaneous enterortic differentiation in culture after reaching cotfflucnce, and morphologically resembles small intestinal epitheliun after three xveeks in culture (5). These morphological characteristics include the development of a brush border region expressing microvilli, occluding junctions, dome formations, and the formation of tight junctions leading to cell polarity. […]

[4] = Stability in HBSS/HEPES buffer and apical/basal media without the Transwell system; assay type: physicochemical; settings: HBSS/HEPES buffer pH 7.4, 37C, or apical and basal media
[5] = 0.01N NaOH, 37C, 6 hours
HCT-8 cell monolayers = experiment: Apical-to-basal transport across HCT-8 cell monolayers (Transwell)
Description: as §1, with “The cells were grown in Dulbecco's Modified Eagle Medium (D-MEM) containing L-glutamine and sodium pyruvate at 37C under 5% CO-. and saturated humidity. Additives to the medium included 10% heat- inactivated fetal bovine serum, 10 mM nonessential amino acids, 100 units of penicillin and 100 mg of streptomycin per ml of medium. 278 A.L. Elkins, J.G. Eley, M.C.” left out

in vitro = settings: human, Caco-2
Description: as §2

[6] = perfusion into the jejunum, two studies; cited from earlier work
[7] = tested on: brush border aminopeptidases; settings: rat brush border aminopeptidases; cited from earlier work
[8] = Table 1, 37C static, initial concentration 0.75 mM
[9] = Table 1, 37C static, initial concentration 1.0 mM
[10] = Table 1, 37C static, initial concentration 2.5 mM
[11] = Table 1, 37C static, initial concentration 5.0 mM
[12] = Table 1, 37C static, initial concentration 7.5 mM
[13] = Table 2, 37C static, initial concentration 1.0 mM
[14] = Table 2, 37C static, initial concentration 5.0 mM (fourth row)
[15] = Table 2, 37C static, initial concentration 7.5 mM
[16] = Table 10, 37C static, 4 h, initial concentration 0.75 mM

## COC(=O)[C@H](Cc1ccccc1)NC(=O)[BH2-][N+](C)(C)C [Compound I, N-[(trimethylamine-boryl)-carbonyl]-L-phenylalanine methyl ester]
[1]
  cytotoxicity: potent
Caco-2 cell monolayers [2]; [8]
  % Mass Balance: 63.8%
  % Mass Transported: 62.2%
  % Mass in Apical Side: 1.6%
Caco-2 cell monolayers [2]; [9]
  % Mass Balance: 67.8%
  % Mass Transported: 60.0%
  % Mass in Apical Side: 7.8%
  Mass Transported (collected in the basal medium after 4 hours): 0.90
Caco-2 cell monolayers [2]; [10]
  % Mass Balance: 73.0%
  % Mass Transported: 64.0%
  % Mass in Apical Side: 9.0%
  Mass Transported (collected in the basal medium after 4 hours): 2.4
Caco-2 cell monolayers [2]; [11]
  % Mass Balance: 71.0%
  % Mass Transported: 62.7%
  % Mass in Apical Side: 8.3%
  Mass Transported (collected in the basal medium after 4 hours): 4.7
Caco-2 cell monolayers [2]; [12]
  % Mass Balance: 74.6%
  % Mass Transported: 66.7%
  Mass Transported (collected in the basal medium after 4 hours): 7.5
Caco-2 cell monolayers [2]; Table 2, 37C static, initial concentration 0.75 mM
  Pseudo first-order rate constant k + SD: 1.76 + 0.06 x 104/sec
Caco-2 cell monolayers [2]; [13]
  Apparent permeability coefficient Pe + SD: 35.1 ×10⁻⁶ cm/s
  Pseudo first-order rate constant k + SD: 1.70 + 0.08 x 104/sec
Caco-2 cell monolayers [2]; Table 2, 37C static, initial concentration 2.5 mM
  Apparent permeability coefficient Pe + SD: 37.5 ×10⁻⁶ cm/s
Caco-2 cell monolayers [2]; [14]
  Apparent permeability coefficient Pe + SD: 32 ×10⁻⁶ cm/s
  Pseudo first-order rate constant k + SD: 1.35 + 0.17 x 104/sec
Caco-2 cell monolayers [2]; [15]
  Apparent permeability coefficient Pe + SD: 37.5 ×10⁻⁶ cm/s
  Pseudo first-order rate constant k + SD: 1.56 + 0.11 x 104/sec
Caco-2 cell monolayers [2]; Table 3, 2.5 mM, 4C Rocking
  % Mass Balance: 89.3%
  % Mass Transported: 48.6%
  % Mass in Apical Side: 40.7%
Caco-2 cell monolayers [2]; Table 3, 2.5 mM, 37C Rocking
  % Mass in Apical Side: 2%
Caco-2 cell monolayers [2]; Table 3, 2.5 mM, 37C Static
  % Mass Balance: 73.1%
  % Mass Transported: 56.9%
Caco-2 cell monolayers [2]; Table 3, initial concentration 2.5 mM, 4C Rocking
  Mass Transported (collected in the basal medium after 4 hours): 1.8
Caco-2 cell monolayers [2]; Table 3, initial concentration 2.5 mM, 37C Rocking
  Mass Transported (collected in the basal medium after 4 hours): 3.0
Caco-2 cell monolayers [2]; Table 3, initial concentration 2.5 mM, 37C Static
  Mass Transported (collected in the basal medium after 4 hours): 2.1
Caco-2 cell monolayers [2]; Table 4, 2.5 mM, 37C Rocking
  Pseudo first-order rate constant k + SD: 3.54 + 0.06 x 104/sec
Caco-2 cell monolayers [2]; Table 4, 2.5 mM, 37C Static
  Pseudo first-order rate constant k + SD: 1.03 + 0.06 x 104/sec
Caco-2 cell monolayers [2]; 4C Rocking
  % Ester in the basal compartment: 74.0%
  % FA (corresponding free acid) in the basal compartment: none
Caco-2 cell monolayers [2]; 4C Static
  % Ester in the basal compartment: 61.8%
  % FA (corresponding free acid) in the basal compartment: none
Caco-2 cell monolayers [2]; 37C Static
  % Ester in the basal compartment: 44.4% and 44%
  % FA (corresponding free acid) in the basal compartment: 44.4% and 44%
Caco-2 cell monolayers [2]; apical-to-basal
  mode of transport across the monolayer: passive diffusion
Caco-2 cell monolayers [2]; apical-to-basal, 4 hours
  compound recovered after transport through Caco-2 cell monolayers: Approximately 70%
Caco-2 cell monolayers [2]
  recovery after quantitating the free acids at the conclusion of transport experiments: 100%
Caco-2 cell monolayers [2]; side-by-side experiment, 37C static, 4 hours
  ester remaining in the apical compartment: none
Caco-2 cell monolayers [3]
  recovery in basal-to-apical transport experiments: 100%
[4]
  % of the original ester at 25 hours: 96%
[5]
  ester degradation to the free acid: all ofthe ester was degraded
HCT-8 cell monolayers; HCT-8 cell monolayers
  unaccounted for as the ester or the respective free acid: ~45%
HCT-8 cell monolayers; [16]
  % Mass Balance: 88.2%
  % Mass Transported: 77.3%
  % Mass in Apical Side: 10.9%
HCT-8 cell monolayers; Table 10, 37C static, initial concentration 0.75 mM
  Mass Transported (collected in the basal medium after 4 hours): 0.87

## COC(=O)[C@H](Cc1ccccc1)NC(=O)[BH2-][NH+](C)C [Compound II, N-[(dimethylamine-boryl)-carbonyl]-L-phenylalanine methyl ester]
Caco-2 cell monolayers [2]; Table 5, 4C Rocking
  % Mass Balance: 81.8%
  % Mass Transported: 37.3%
  % Mass in Apical Side: 44.5%
Caco-2 cell monolayers [2]; Table 5, 4C Static
  % Mass Balance: 79.9%
  % Mass Transported: 39.3%
  % Mass in Apical Side: 40.6%
Caco-2 cell monolayers [2]; Table 5, 37C Static
  % Mass Balance: 57.7%
  % Mass Transported: 52.7%
  % Mass in Apical Side: 5.0%
Caco-2 cell monolayers [2]; Table 5, initial concentration figure not printed (mM), 4C Rocking
  Mass Transported (collected in the basal medium after 4 hours): 0.56
Caco-2 cell monolayers [2]; Table 5, initial concentration figure not printed (mM), 4C Static
  Mass Transported (collected in the basal medium after 4 hours): 0.59
Caco-2 cell monolayers [2]; Table 5, initial concentration figure not printed (mM), 37C Static
  Mass Transported (collected in the basal medium after 4 hours): 0.79
Caco-2 cell monolayers [2]; Table 6, 37C Rocking
  Apparent permeability coefficient Pe + SD: 48 ×10⁻⁶ cm/s
  Pseudo first-order rate constant k + SD: 2.8 + 0.22 x 104/sec
Caco-2 cell monolayers [2]; 4C Rocking
  % Ester in the basal compartment: 55.5%
  % FA (corresponding free acid) in the basal compartment: inhibited
Caco-2 cell monolayers [2]; 4C Static
  % Ester in the basal compartment: 59.4%
  % FA (corresponding free acid) in the basal compartment: inhibited
Caco-2 cell monolayers [2]; 37C Static
  % Ester in the basal compartment: 48.6% and 49%
  % FA (corresponding free acid) in the basal compartment: 51.5% and 52%
Caco-2 cell monolayers [2]; apical-to-basal
  mode of transport across the monolayer: passive diffusion
Caco-2 cell monolayers [2]; apical-to-basal, 4 hours
  compound recovered after transport through Caco-2 cell monolayers: 58%
Caco-2 cell monolayers [2]
  recovery after quantitating the free acids at the conclusion of transport experiments: 100%
[4]
  % of the original ester at 25 hours: 90%

## COC(=O)[C@H](Cc1ccccc1)NC(=O)CN(C)C [Compound III, N,N-dimethylglycyl-L-phenylalanine methyl ester]
Caco-2 cell monolayers [2]; Table 8, 4C Static
  Apparent permeability coefficient Pe + SD: 8 ×10⁻⁶ cm/s

## CCCOC(=O)c1ccc(O)cc1 [Propyl paraben, reference compound]
Caco-2 cell monolayers [2]; Caco-2
  mode of transport across the monolayer: passive diffusion
Caco-2 cell monolayers [2]; human, Caco-2, 4 h
  compound recovered after transport through Caco-2 cell monolayers: 100%
In vitro
  recovery: 100%

## NCC(=O)N[C@@H](Cc1ccccc1)C(=O)O [glycine-phenylalanine] (H-Gly-Phe-OH)
[6]
  disappearance rate: 68% and 79%
[7]
  substrate specificity: 85%
